Active and inactive are the calls of the source. No cut-off for these calls is given here. Bounds are passed on as bounds.

Experiment [1] has as its target T1, 2-5A-dependent ribonuclease (Homo sapiens) (UniProt Q05823).
T1 sequence (whole entry): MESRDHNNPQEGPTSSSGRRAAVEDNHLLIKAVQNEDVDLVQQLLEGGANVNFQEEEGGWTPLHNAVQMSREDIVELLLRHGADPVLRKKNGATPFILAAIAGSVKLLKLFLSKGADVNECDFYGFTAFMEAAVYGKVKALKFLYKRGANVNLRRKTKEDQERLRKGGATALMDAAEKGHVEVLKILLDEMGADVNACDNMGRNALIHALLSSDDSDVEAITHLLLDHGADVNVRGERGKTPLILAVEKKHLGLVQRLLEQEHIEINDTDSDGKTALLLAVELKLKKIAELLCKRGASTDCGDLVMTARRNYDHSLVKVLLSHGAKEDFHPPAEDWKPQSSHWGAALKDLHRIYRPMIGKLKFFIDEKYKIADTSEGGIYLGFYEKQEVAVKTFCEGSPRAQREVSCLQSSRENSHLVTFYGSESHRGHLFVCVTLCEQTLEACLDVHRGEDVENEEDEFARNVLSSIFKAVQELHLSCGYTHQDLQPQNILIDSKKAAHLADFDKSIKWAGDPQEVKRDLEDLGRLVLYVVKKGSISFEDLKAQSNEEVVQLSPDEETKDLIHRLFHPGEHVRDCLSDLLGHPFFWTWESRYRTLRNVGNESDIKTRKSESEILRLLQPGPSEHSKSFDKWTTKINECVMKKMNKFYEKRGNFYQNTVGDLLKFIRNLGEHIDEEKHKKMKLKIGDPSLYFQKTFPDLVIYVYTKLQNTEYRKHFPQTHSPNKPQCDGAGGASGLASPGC
The experiment can be described thus: Inhibition of his6-tagged full length human RNase L expressed in insect cells at 130 uM incubated for 30 min by FRET assay relative to control.

Experiment [2] has as its target T1, 2-5A-dependent ribonuclease (Homo sapiens). Briefly: Inhibition of his6-tagged full length human RNase L expressed in insect cells at 250 uM incubated for 30 min by FRET assay relative to control.
Experiment [3] has as its target T2, 2-5A-dependent ribonuclease (Homo sapiens, UniProt Q05823).
T2 sequence (Q05823 whole entry): T1 sequence (whole entry)
The experiment can be described thus: Inhibition of his6-tagged full length human RNase L expressed in insect cells incubated for 30 min by FRET assay.

Experiment [4] has as its target T1, 2-5A-dependent ribonuclease (Homo sapiens). Briefly: Inhibition of his6-tagged full length human RNase L expressed in insect cells at 250 uM incubated for 30 mins in presence of 2-5A and ATP by gel based RNA cleavage assay relative to control.
For experiment [5] the target is unchanged. The experiment can be described thus: Inhibition of his6-tagged full length human RNase L expressed in insect cells incubated for 30 mins in presence of 2-5A and ATP by gel based RNA cleavage assay. Particulars: dose 250.0 µM.
For experiment [6] the target is unchanged. The experiment can be described thus: Binding affinity to his6-tagged full length human RNase L expressed in insect cells by biolayer interferometry analysis. Background: Biolayer interferometry detects binding as a change in optical thickness at a sensor tip.
Experiment [7] shares this target. The experiment can be described thus: Inhibition of RNase L in human HeLa cells assessed as ribosomal RNA degradation at 2 uM incubated for 4 hrs by NanoDrop spectrophotometry analysis. It is filed as cell-based.
For experiment [8] the target is unchanged. The experiment can be described thus: Inhibition of RNase L in human HeLa cells assessed as ribosomal RNA degradation at 10 uM incubated for 4 hrs by NanoDrop spectrophotometry analysis relative to control. It is filed as cell-based.
Experiment [9] shares this target. The experiment can be described thus: Potency index, ratio of sunitinib IC50 to test compound IC50 for inhibition of his6-tagged full length human RNase L expressed in insect cells incubated for 30 min by FRET assay.

Broadly, the inhibition is the drop in the measured response relative to a control, in per cent. Regarding `CCN(CC)CCNC(=O)c1c(C)[nH]c(/C=C2/SC(Nc3cccc(OC)c3)=C(C(=O)NCCNC(=O)OC(C)(C)C)C2=O)c1C`, the inhibition in [1] amounted to 49%.

With `CCOC(=O)C1=C(Nc2ccc(CC)cc2)S/C(=C/c2[nH]c(C)c(C(=O)NCCN(CC)CC)c2C)C1=O`, the inhibition in [2] was found to be 83%.

In the case of `CCN(CC)CCNC(=O)c1c(C)[nH]c(/C=C2/OC(Nc3ccccc3)=C(C(=O)NCCNC(=O)OC(C)(C)C)C2=O)c1C`, the inhibition in experiment [2] was found to be 79%.

What is called IC50 is the concentration that gives 50% inhibition. In the case of `CCN(CC)CCNC(=O)c1c(C)[nH]c(/C=C2/SC(Nc3ccccc3)=C(C(=O)NCCN)C2=O)c1C`, the inhibition in experiment [2] was 101%. The compound further registered an IC50 in [3] of 28 µM.

Take `CCOC(=O)C1=C(Nc2cccc(F)c2)S/C(=C/c2[nH]c(C)c(C(=O)NCCN(CC)CC)c2C)C1=O`: the inhibition in experiment [2] was 76%.

Take `CCN(CC)CCNC(=O)c1c(C)[nH]c(/C=C2/SC(Nc3cccc(Cl)c3)=C(C(=O)NCCNC(=O)OC(C)(C)C)C2=O)c1C`: the inhibition in experiment [2] stood at 96%.

For `CCOC(=O)C1=C(Nc2ccc(Br)cc2)S/C(=C/c2[nH]c(C)c(C(=O)NCCN(CC)CC)c2C)C1=O`, the inhibition in [2] came out at 90%.

In the case of `CCOC(=O)C1=C(Nc2ccc([N+](=O)[O-])cc2)S/C(=C/c2[nH]c(C)c(C(=O)NCCN(CC)CC)c2C)C1=O`, in [2], the inhibition amounted to 67%.

As to `CCN(CC)CCNC(=O)c1c(C)[nH]c(/C=C2/OC(Nc3cccc(F)c3)=C(C(=O)NCCNC(=O)OC(C)(C)C)C2=O)c1C`, the inhibition in experiment [2] is 84%.

Consider `CCN(CC)CCNC(=O)c1c(C)[nH]c(/C=C2/SC(Nc3ccccc3)=C(C(=O)NCCNC(=O)OC(C)(C)C)C2=O)c1C`, for which the inhibition in [2] is 75%.

Take `CCOC(=O)C1=C(Nc2cccc([N+](=O)[O-])c2)S/C(=C/c2[nH]c(C)c(C(=O)NCCN(CC)CC)c2C)C1=O`: the inhibition in experiment [2] amounted to 76%.

As to `CCN(CC)CCNC(=O)c1c(C)[nH]c(/C=C2/OC(Nc3ccccc3)=C(C(=O)NC)C2=O)c1C`, the inhibition in experiment [2] stood at 74%.

As to `CCN(CC)CCNC(=O)c1c(C)[nH]c(/C=C2/SC(Nc3cccc(F)c3)=C(C(=O)NCCN)C2=O)c1C`, the inhibition in experiment [2] is 102%; in experiment [4], 100%; in experiment [5], “Dose-Dependent Effect”; in [8] it was 100%. In experiment [3], this compound showed an IC50 of 16 µM. Further, in experiment [6], the outcome was Active. The inhibition result in experiment [7] is “Active”.

For the compound `CCN(CC)CCNC(=O)c1c(C)[nH]c(/C=C2/SC(Nc3cccc(OC)c3)=C(C(=O)NC)C2=O)c1C`, the inhibition in [2] amounted to 99%.

With `CCN(CC)CCNC(=O)c1c(C)[nH]c(/C=C2/SC(Nc3cccc(Cl)c3)=C(C(=O)NC)C2=O)c1C`, in experiment [1], the inhibition came out at 88%.

Take `CCOC(=O)C1=C(Nc2cccc(OC)c2)S/C(=C/c2[nH]c(C)c(C(=O)NCCN(CC)CC)c2C)C1=O`: in experiment [2], the inhibition turned out to be 78%.

Take `CCOC(=O)C1=C(Nc2ccc(OC)cc2)S/C(=C/c2[nH]c(C)c(C(=O)NCCN(CC)CC)c2C)C1=O`: the inhibition in experiment [2] amounted to 70%.

For the compound `CCN(CC)CCNC(=O)c1c(C)[nH]c(/C=C2/SC(Nc3cccc(C(F)(F)F)c3)=C(C(=O)NC)C2=O)c1C`, in experiment [1], the inhibition turned out to be 97%.

On to `CCOC(=O)C1=C(Nc2ccc(C(F)(F)F)cc2)S/C(=C/c2[nH]c(C)c(C(=O)NCCN(CC)CC)c2C)C1=O`, for which the inhibition in [2] came out at 90%.

In the case of `CCOC(=O)C1=C(Nc2ccc(F)cc2)S/C(=C/c2[nH]c(C)c(C(=O)NCCN(CC)CC)c2C)C1=O`, the inhibition in experiment [2] stood at 80%.

On to `CCN(CC)CCNC(=O)c1c(C)[nH]c(/C=C2/SC(Nc3cccc(F)c3)=C(C(=O)NCCNC(=O)OC(C)(C)C)C2=O)c1C`, for which the inhibition in experiment [2] was 100%.

Regarding `CCN(CC)CCNC(=O)c1c(C)[nH]c(/C=C2\C(=O)Nc3ccc(F)cc32)c1C`, the inhibition in [2] is 83%.

For the compound `CCOC(=O)C1=C(Nc2ccc(C)cc2)S/C(=C/c2[nH]c(C)c(C(=O)NCCN(CC)CC)c2C)C1=O`, the inhibition in experiment [2] amounted to 83%.

For `CCN(CC)CCNC(=O)c1c(C)[nH]c(/C=C2/OC(Nc3cccc(F)c3)=C(C(=O)NCCN)C2=O)c1C`, the inhibition in experiment [2] was 97%. The same compound showed an IC50 in experiment [3] of 41.9 µM.

Turning to `CCN(CC)CCNC(=O)c1c(C)[nH]c(/C=C2/SC(Nc3cccc([N+](=O)[O-])c3)=C(C(=O)NC)C2=O)c1C`, in [1], the inhibition worked out at 60%.

For `CCN(CC)CCNC(=O)c1c(C)[nH]c(/C=C2/SC(Nc3cccc(F)c3)=C(C(=O)NCc3ccccc3)C2=O)c1C`, the inhibition in [2] is 99%.

In the case of `CCN(CC)CCNC(=O)c1c(C)[nH]c(/C=C2/SC(Nc3ccccc3)=C(C(=O)NC)C2=O)c1C`, the inhibition in experiment [2] was 67%.

With `CCOC(=O)C1=C(Nc2ccccc2Br)S/C(=C/c2[nH]c(C)c(C(=O)NCCN(CC)CC)c2C)C1=O`, the inhibition in [2] stood at 85%.

In the case of `CCN(CC)CCNC(=O)c1c(C)[nH]c(/C=C2/OC(Nc3ccccc3)=C(C(=O)NCCN)C2=O)c1C`, in experiment [2], the inhibition amounted to 93%.

With `CCOC(=O)C1=C(Nc2ccccc2)S/C(=C/c2[nH]c(C)c(C(=O)NCCN(CC)CC)c2C)C1=O`, the inhibition in experiment [2] was found to be 78%.

In the case of `CCN(CC)CCNC(=O)c1c(C)[nH]c(/C=C2/SC(Nc3ccc(F)cc3)=C(C(=O)NC)C2=O)c1C`, the inhibition in experiment [2] was less than 5%.

For `CCOC(=O)C1=C(Nc2ccc(OC)c(OC)c2)S/C(=C/c2[nH]c(C)c(C(=O)NCCN(CC)CC)c2C)C1=O`, the inhibition in experiment [2] worked out at 79%.

Regarding `CCN(CC)CCNC(=O)c1c(C)[nH]c(/C=C2/SC(Nc3cccc(Cl)c3)=C(C(=O)NCCN)C2=O)c1C`, the inhibition is 101% in experiment [2], 100% in experiment [4] and “Dose-Dependent Effect” in [5]. The same compound yielded a 50% inhibitory concentration (IC50) in [3] of 12 µM. Also, in [6], the result was Active.

Consider `CCN(CC)CCNC(=O)c1c(C)[nH]c(/C=C2/SC(Nc3cccc(F)c3)=C(C(=O)NC)C2=O)c1C`, for which the inhibition in experiment [2] worked out at 58%.

Consider `CCN(CC)CCNC(=O)c1c(C)[nH]c(/C=C2/SC(Nc3cccc(OC)c3)=C(C(=O)NCCN)C2=O)c1C`, for which the inhibition in [2] was 101%; in [4] it was 100%; in experiment [5], “Dose-Dependent Effect”. This compound also showed an IC50 in experiment [3] of 13 µM. Also, in experiment [9], the Ratio IC50 came to 30. Moreover, in experiment [6], the result was Active.
